Results: patent US7718614B2 (Kurume University, priority 2003, dated 2010)
Values joined by “and” are separate entries in the source; they are usually repeats but may differ in a detail not shown here. Identical values can stand only once. “Also recorded” adds a separate entry of the source.

How the values were obtained:
[1] = test system: HRPC patients; details: phase III study; cited from earlier work
[2] = test system: peptide-specific IgG; assay: ELISA of serum anti-peptide IgG, Example 2; format: in vivo, human; design: key: −: absent; +: present, low titer; ++: present, high titer; details: serum of the individual patient; for Anti-peptide IgG, Pre: pre-vaccination; for Anti-peptide IgG, 6th: after 6th vaccination
Method: Peptide-specific CTL precursors in PBMCs were detected using a previously reported culture method, while an ELISA was used to detect the serum IgG levels specific for the peptides administrated, as reported previously. In addition, a new monitoring method was conducted to carefully measure the estramustine-induced immunosuppression. Namely, PBMCs were harvested every 2 weeks and were cultured (10^4 cells/well) for 2 days in triplicate assays with […] of phytohemagglutinin (PHA), 10 ng/ml of Epstein-Bar virus (EBV)-derived peptide with HLA-A24 or -A2 binding motif, and 10 ng/ml of two different peptides under vaccination. After 2 days in culture, the amounts of IFN-γ in cell free supernatants were measured in triplicate assays, and viable cell numbers were also counted. To avoid biases in each assay, all the PBMCs were once cryopreserved and the four different PBMCs (two from healthy donors, one from patients PBMCs harvested 2 weeks before the latest vaccination, and one from the latest vaccination) were thawed at the same time in the morning of the experiment. The PBMCs from healthy donors were from the same donors throughout the series of immunological monitoring. Responses (IFN-γ production) to PHA, EBV-peptide, and the vaccinated peptides were considered to be mediated by resting T cells, memory T cells, and activated T cells, respectively.
Except for the following points, substantially the same approach was employed as Example 1.

[3] = test system: peptide-specific IgG; assay: ELISA of serum IgG specific for the administered peptides, Example 1; format: in vivo, human; design: key: −: absent; +: present, low titer; ++: present, high titer; details: serum of the individual case; for Anti-peptide IgG during the combination therapy, 6th: after 6th vaccination; for Anti-peptide IgG during the combination therapy, 12th: after 12th vaccination; for Anti-peptide IgG during the combination therapy, 18th: after 18th vaccination; for Anti-peptide IgG during the combination therapy, Pre: before combination therapy
[4] = test system: peptide-specific CTL precursors in PBMCs; assay: Peptide-specific CTL precursor assay (IFN-γ production of peptide-stimulated PBMCs), Example 1; format: cell-based, human; design: key to Cellular response to peptide during the combination therapy, 12th / Cellular response to peptide during the combination therapy, 6th / Cellular response to peptide during the combination therapy, Pre: Ar: p* ≦ 0.1 and 500 ≦ net**; A: p ≦ 0.05 and 50 ≦ net; B: p ≦ 0.05 and 25 ≦ net < 50; C: 0.05 < p < 0.1 and 50 ≦ net; AAAA: all four wells of quadruplicate assay were positive; AAA: three wells of quadruplicate assay were positive; AA: two wells of quadruplicate assay were positive; details: PBMCs of the individual case; for Cellular response to peptide during the combination therapy, 6th: after 6th vaccination; for Cellular response to peptide during the combination therapy, 12th: after 12th vaccination; for Cellular response to peptide during the combination therapy, 18th: after 18th vaccination; for Cellular response to peptide during the combination therapy, Pre: before combination therapy, grade of each positive well of quadruplicate IFN-γ assay;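 as to all read-outs here: PBMCs cultured with each peptide at 10 µM, restimulated at 20 µM every 3 days up to 12 days, then 18 hr with peptide-pulsed target cells, IFN-γ by ELISA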
Method: Before the first vaccination and 7 days after every 6th vaccination, 30 ml of peripheral blood was obtained, and PBMCs were isolated by means of Ficoll-Conray density gradient centrifugation. Peptide-specific CTL precursors in PBMCs were detected using a previously reported culture method [24]. Briefly, PBMCs (1×10^5 cells/well) were incubated with 10 μM of each peptide in U-bottom-type 96-well microculture plates (Nunc, Roskilde, Denmark) in 200 μl of culture medium. The culture medium contained 45% RPMI-1640 medium, 45% AIM-V™ medium (Invitrogen Corp., Carlsbad, Calif.), 10% FCS, 100 U/ml of interleukin-2 (IL-2) and 0.1 mM MEM nonessential amino acid solution (Invitrogen Corp.). Half of the medium was removed and replaced with the new medium containing a corresponding peptide (20 μM) every 3 days for up to 12 days. […] The target cells (C1R-A2402 or T2, 1×10^4/well) were pulsed with each peptide (10 μM) for 2 hr, and then effector cells (1×10^5/well) were added to each well with the final volume of 200 μl. After incubation for 18 hr, the supernatants (100 μl) were collected, and the amounts of IFN-γ were measured using an enzyme-linked immuno-sorbent assay (ELISA) (limit of sensitivity: 10 pg/ml). All experiments were performed in the four different wells with duplicate assays. […] Peptides were chosen based upon evaluation of all 4 wells by the order shown above.
Peptide-specific CTL precursors in PBMCs were detected using a previously reported culture method [24], while an ELISA was used to detect the serum IgG levels specific for the peptides administrated, as reported previously [13-15]. […] Namely, PBMCs were harvested every 2 weeks and were cultured (10^4 cells/well) for 2 days in triplicate assays with 10 μl M of phytohemagglutinin (PHA), 10 ng/ml of Epstein-Bar virus (EBV)-derived peptide with HLA-A24 or -A2 binding motif, and 10 ng/ml of two different peptides under vaccination. After 2 days in culture, the amounts of IFN-γ in cell free supernatants were measured in triplicate assays, and viable cell numbers were also counted. To avoid biases in each assay, all the PBMCs were once cryopreserved and the four different PBMCs (two from healthy donors, one from patients PBMCs harvested 2 weeks before the latest vaccination, and one from the latest vaccination) were thawed at the same time in the morning of the experiment. The PBMCs from healthy donors were from the same donors throughout the series of immunological monitoring. Responses (IFN-γ production) to PHA, EBV-peptide, and the vaccinated peptides were considered to be mediated by resting T cells, memory T cells, and activated T cells, respectively.

[5] = test system: peptide-specific CTL precursors in PBMCs; assay: Peptide-specific CTL precursor assay (IFN-γ production), Example 2; format: cell-based, human; details: for Cellular response to peptide, Pre (mean specific IFN-γ production): pre-vaccination PBMCs of the individual patient, response to HIV peptide subtracted; for Cellular response to peptide, 6th (mean specific IFN-γ production): post(6th)-vaccination PBMCs of the individual patient, * p ≦ 0.05, ** p ≦ 0.10 increased versus pre
Method: Before the first vaccination and 7 days after every 6th vaccination, 30 ml of peripheral blood was obtained, and PBMCs were isolated by means of Ficoll-Conray density gradient centrifugation. Peptide-specific CTL precursors in PBMCs were detected using a previously reported culture method [24]. Briefly, PBMCs (1×10^5 cells/well) were incubated with 10 μM of each peptide in U-bottom-type 96-well microculture plates (Nunc, Roskilde, Denmark) in 200 μl of culture medium. The culture medium contained 45% RPMI-1640 medium, 45% AIM-V™ medium (Invitrogen Corp., Carlsbad, Calif.), 10% FCS, 100 U/ml of interleukin-2 (IL-2) and 0.1 mM MEM nonessential amino acid solution (Invitrogen Corp.). Half of the medium was removed and replaced with the new medium containing a corresponding peptide (20 μM) every 3 days for up to 12 days. […] The target cells (C1R-A2402 or T2, 1×10^4/well) were pulsed with each peptide (10 μM) for 2 hr, and then effector cells (1×10^5/well) were added to each well with the final volume of 200 μl. After incubation for 18 hr, the supernatants (100 μl) were collected, and the amounts of IFN-γ were measured using an enzyme-linked immuno-sorbent assay (ELISA) (limit of sensitivity: 10 pg/ml). All experiments were performed in the four different wells with duplicate assays.
All patients were vaccinated with up to 4 peptides selected from the 16 candidates by pre-vaccination measurements.

Compound: CC[C@]1(O)C[C@@H]2CN(CCc3c([nH]c4ccccc34)[C@@](C(=O)OC)(c3cc4c(cc3OC)N(C)[C@H]3[C@@](O)(C(=O)OC)[C@H](OC(C)=O)[C@]5(CC)C=CCN6CC[C@]43[C@@H]65)C2)C1 [vinblastine]
- Rate of neutropenia, grade 2 [1]: 27%
- Rate of neutropenia, grade 3 [1]: 18%
- Rate of neutropenia, grade 4 [1]: 9%

Compound: AYDFLYNYL [SART 2161-169]
- Anti-peptide IgG, Pre [2]: +
- Anti-peptide IgG during the combination therapy, 6th [3]: −
- Anti-peptide IgG during the combination therapy, 12th [3]: −
- Anti-peptide IgG during the combination therapy, 18th [3]: −
- Anti-peptide IgG during the combination therapy, Pre [3]: −
- Cellular response to peptide during the combination therapy, 6th [4]: Ar (p* ≦ 0.1 and 500 ≦ net**)
- Cellular response to peptide during the combination therapy, 12th [4]: B (p ≦ 0.05 and 25 ≦ net < 50) and AAC
- Cellular response to peptide during the combination therapy, 18th [4]: ArA and ArArAA
- Cellular response to peptide during the combination therapy, Pre [4]: A (p ≦ 0.05 and 50 ≦ net)
- Cellular response to peptide, Pre (mean specific IFN-γ production) [5]: 0 pg/mL

Compound: AYIDFEMKI [SART 3315-323]
- Anti-peptide IgG, 6th [2]: + (2×) and − (3×)
- Anti-peptide IgG, Pre [2]: − (4×) and + (2×)
- Anti-peptide IgG during the combination therapy, 6th [3]: − and +
- Anti-peptide IgG during the combination therapy, 12th [3]: −
- Anti-peptide IgG during the combination therapy, 18th [3]: −
- Anti-peptide IgG during the combination therapy, Pre [3]: − and +
- Cellular response to peptide during the combination therapy, 6th [4]: A (p ≦ 0.05 and 50 ≦ net)
- Cellular response to peptide during the combination therapy, 12th [4]: Ar (p* ≦ 0.1 and 500 ≦ net**)
- Cellular response to peptide during the combination therapy, 18th [4]: ArArArB
- Cellular response to peptide, 6th (mean specific IFN-γ production) [5]: 39.3 pg/ml and 12.8 pg/ml and 154** pg/ml and 26.5 pg/ml and 255 pg/ml
- Cellular response to peptide, Pre (mean specific IFN-γ production) [5]: 47.8 pg/mL and 4 pg/mL and 0 pg/mL and 112.3 pg/mL and 44.8 pg/mL and 15 pg/mL

Compound: CYASGWGSI [PSA152]
- Anti-peptide IgG, 6th [2]: − (4×) and +
- Anti-peptide IgG, Pre [2]: − (3×) and + (2×)
- Cellular response to peptide, 6th (mean specific IFN-γ production) [5]: 34.8 pg/ml and 0 pg/ml (2×) and 18.8 pg/ml and 15.5 pg/ml
- Cellular response to peptide, Pre (mean specific IFN-γ production) [5]: 34.5 pg/mL and 39.5 pg/mL and 250 pg/mL and 49.3 pg/mL and 168.8 pg/mL

Compound: DYLRSVLEDF [lck488-497]
- Anti-peptide IgG, 6th [2]: −
- Anti-peptide IgG, Pre [2]: + (3×) and −
- Anti-peptide IgG during the combination therapy, 6th [3]: − (3×) and +
- Anti-peptide IgG during the combination therapy, 12th [3]: − (2×) and +
- Anti-peptide IgG during the combination therapy, 18th [3]: + (2×) and −
- Anti-peptide IgG during the combination therapy, Pre [3]: −
- Cellular response to peptide during the combination therapy, 6th [4]: ABB
- Cellular response to peptide during the combination therapy, Pre [4]: C (0.05 < p < 0.1 and 50 ≦ net) and B (p ≦ 0.05 and 25 ≦ net < 50) and ArAB
- Cellular response to peptide, 6th (mean specific IFN-γ production) [5]: 99 pg/mL and 26.8 pg/mL and 26.5 pg/mL and 19.8 pg/mL
- Cellular response to peptide, Pre (mean specific IFN-γ production) [5]: 29.8 pg/mL and 36.5 pg/mL and 31.8 pg/mL and 30.5 pg/mL

Compound: DYSARWNEI [SART 293-101]
- Anti-peptide IgG, 6th [2]: + and − (2×)
- Anti-peptide IgG, Pre [2]: + (2×) and −
- Anti-peptide IgG during the combination therapy, 6th [3]: −
- Anti-peptide IgG during the combination therapy, 12th [3]: −
- Anti-peptide IgG during the combination therapy, 18th [3]: −
- Anti-peptide IgG during the combination therapy, Pre [3]: −
- Cellular response to peptide during the combination therapy, Pre [4]: C (0.05 < p < 0.1 and 50 ≦ net)
- Cellular response to peptide, 6th (mean specific IFN-γ production) [5]: 376.8 pg/ml and 162.5 pg/ml and 228.5** pg/ml
- Cellular response to peptide, Pre (mean specific IFN-γ production) [5]: 22.8 pg/mL and 125 pg/mL and 57.3 pg/mL

Compound: EYRGFTQDF [SART1 690]
- Anti-peptide IgG, 6th [2]: + (2×) and −
- Anti-peptide IgG, Pre [2]: + and − (2×)
- Cellular response to peptide, 6th (mean specific IFN-γ production) [5]: 0 pg/mL and 81.8 pg/mL and 35 pg/mL
- Cellular response to peptide, Pre (mean specific IFN-γ production) [5]: 0 pg/mL and 250 pg/mL and 449 pg/mL

Compound: HYRKWIKDTI [PSA248]
- Anti-peptide IgG, 6th [2]: + (8×) and ++ (4×)
- Anti-peptide IgG, Pre [2]: + (12×) and − (2×)
- Cellular response to peptide, 6th (mean specific IFN-γ production) [5]: 100 pg/ml and 505.8 pg/ml and 303.5 pg/ml and 149.8 pg/ml and 0 pg/ml (4×) and 9.3 pg/ml and 21.3 pg/ml and 38.8 pg/ml and 243.5 pg/ml and 9.8 pg/ml
- Cellular response to peptide, Pre (mean specific IFN-γ production) [5]: 19.5 pg/ml and 28.3 pg/ml and 12.8 pg/ml and 14.3 pg/ml and 6.5 pg/ml and 18.5 pg/ml and 0 pg/ml (2×) and 375 pg/ml and 17 pg/ml and 250 pg/ml and 18 pg/ml and 32.8 pg/ml and 23.8 pg/ml

Compound: HYTNASDGL [lck208-216]
- Anti-peptide IgG, 6th [2]: −
- Anti-peptide IgG, Pre [2]: − (2×) and +
- Anti-peptide IgG during the combination therapy, 6th [3]: −
- Anti-peptide IgG during the combination therapy, 12th [3]: −
- Anti-peptide IgG during the combination therapy, 18th [3]: − and +
- Anti-peptide IgG during the combination therapy, Pre [3]: −
- Cellular response to peptide during the combination therapy, 6th [4]: AA
- Cellular response to peptide during the combination therapy, Pre [4]: A (p ≦ 0.05 and 50 ≦ net)
- Cellular response to peptide, 6th (mean specific IFN-γ production) [5]: 0 pg/mL and 676 pg/mL and 58.8 pg/mL
- Cellular response to peptide, Pre (mean specific IFN-γ production) [5]: 34.8 pg/mL and 5.8 pg/mL and 26.3 pg/mL

Compound: LYCESVHNF [PAP213]
- Anti-peptide IgG, 6th [2]: ++ and + (5×) and − (4×)
- Anti-peptide IgG, Pre [2]: + (6×) and − (5×)
- Cellular response to peptide, 6th (mean specific IFN-γ production) [5]: 46.8 pg/ml and 850* pg/ml and 0 pg/ml and 186.8** pg/ml and 36.5 pg/ml and 153.5 pg/ml and 622.3* pg/ml and 9.5 pg/ml and 324.3** pg/ml and 32 pg/ml and 392.3* pg/ml
- Cellular response to peptide, Pre (mean specific IFN-γ production) [5]: 0 pg/ml (3×) and 30.8 pg/ml and 5.8 pg/ml and 375 pg/ml and 250 pg/ml and 28.8 pg/ml and 80 pg/ml and 14.3 pg/ml and 33.8 pg/ml

Compound: TFDYLRSVL [lck486]
- Anti-peptide IgG, 6th [2]: +
- Anti-peptide IgG, Pre [2]: −
- Cellular response to peptide, 6th (mean specific IFN-γ production) [5]: 58.5 pg/mL
- Cellular response to peptide, Pre (mean specific IFN-γ production) [5]: 375 pg/mL

Compound: TYSVSFDSL [PSM624]
- Anti-peptide IgG, 6th [2]: +
- Anti-peptide IgG, Pre [2]: +
- Cellular response to peptide, 6th (mean specific IFN-γ production) [5]: 167 pg/mL
- Cellular response to peptide, Pre (mean specific IFN-γ production) [5]: 100 pg/mL

Compound: VYDYNCHVDL [SART 3109-118]
- Anti-peptide IgG, 6th [2]: + (8×) and ++ and −
- Anti-peptide IgG, Pre [2]: + (11×) and −
- Anti-peptide IgG during the combination therapy, 6th [3]: ++ and + and −
- Anti-peptide IgG during the combination therapy, 12th [3]: ++ and −
- Anti-peptide IgG during the combination therapy, 18th [3]: ++ and +
- Anti-peptide IgG during the combination therapy, Pre [3]: + and − (2×)
- Cellular response to peptide during the combination therapy, 6th [4]: ArA and ArArArA
- Cellular response to peptide during the combination therapy, 12th [4]: B (p ≦ 0.05 and 25 ≦ net < 50); also recorded: ArArArA
- Cellular response to peptide during the combination therapy, 18th [4]: ArArAA
- Cellular response to peptide during the combination therapy, Pre [4]: ArAA and ArArArA
- Cellular response to peptide, 6th (mean specific IFN-γ production) [5]: 25 pg/ml and 27.3 pg/ml and 534** pg/ml and 170.8 pg/ml and 750** pg/ml and 610.8* pg/ml and 250 pg/ml and 496 pg/ml and 22.3 pg/ml and 0 pg/ml and 681.8 pg/ml
- Cellular response to peptide, Pre (mean specific IFN-γ production) [5]: 14.3 pg/ml and 26 pg/ml and 12.3 pg/ml and 5.3 pg/ml and 5.5 pg/ml and 0 pg/ml (2×) and 625 pg/ml and 35.8 pg/ml and 30.3 pg/ml and 25.3 pg/ml and 2.8 pg/ml
